Results: patent publication US20140228349A1, “5,7-SUBSTITUTED-IMIDAZO[1,2-C]PYRIMIDINES” (Array BioPharma Inc., priority 2011, published 2014)

Columns and labels:
Type in all cases: biochemical
JAK1 = target: T1, JAK1 (Homo sapiens, UniProt P23458); assay: JAK1 Inhibition Assay (Omnia kinase fluorescence peptide substrate); settings: averaged IC50 ranges; 40 μM (Km app) or 1 mM ATP, 15 nM JAK1
T1 construct: purchased Invitrogen Corporation, Carlsbad, Calif; IVGN PV4775
How it was run: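 15 nM JAK1, 8 μM Omnia Y12 peptide, 40 μM (Km app) or 1 mM ATP; 25 mM HEPES pH 7.4, 10 mM MgCl2, 2% DMSO. Fluorescence (ex 360/em 485 nm) read every 50 s over 45 min. IC50 by 4-parameter fit of percent of control, top dose 10 μM.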

JAK3 = target: T2, JAK3 (Homo sapiens, UniProt P52333); assay: JAK3 Inhibition Assay (Omnia kinase fluorescence peptide substrate); settings: averaged IC50 ranges; 10 μM (Km app) or 1 mM ATP, 2.5 nM JAK3
T2 construct: purchased Invitrogen Corporation, Carlsbad, Calif; IVGN PV4080
T2 sequence (P52333 1-1124): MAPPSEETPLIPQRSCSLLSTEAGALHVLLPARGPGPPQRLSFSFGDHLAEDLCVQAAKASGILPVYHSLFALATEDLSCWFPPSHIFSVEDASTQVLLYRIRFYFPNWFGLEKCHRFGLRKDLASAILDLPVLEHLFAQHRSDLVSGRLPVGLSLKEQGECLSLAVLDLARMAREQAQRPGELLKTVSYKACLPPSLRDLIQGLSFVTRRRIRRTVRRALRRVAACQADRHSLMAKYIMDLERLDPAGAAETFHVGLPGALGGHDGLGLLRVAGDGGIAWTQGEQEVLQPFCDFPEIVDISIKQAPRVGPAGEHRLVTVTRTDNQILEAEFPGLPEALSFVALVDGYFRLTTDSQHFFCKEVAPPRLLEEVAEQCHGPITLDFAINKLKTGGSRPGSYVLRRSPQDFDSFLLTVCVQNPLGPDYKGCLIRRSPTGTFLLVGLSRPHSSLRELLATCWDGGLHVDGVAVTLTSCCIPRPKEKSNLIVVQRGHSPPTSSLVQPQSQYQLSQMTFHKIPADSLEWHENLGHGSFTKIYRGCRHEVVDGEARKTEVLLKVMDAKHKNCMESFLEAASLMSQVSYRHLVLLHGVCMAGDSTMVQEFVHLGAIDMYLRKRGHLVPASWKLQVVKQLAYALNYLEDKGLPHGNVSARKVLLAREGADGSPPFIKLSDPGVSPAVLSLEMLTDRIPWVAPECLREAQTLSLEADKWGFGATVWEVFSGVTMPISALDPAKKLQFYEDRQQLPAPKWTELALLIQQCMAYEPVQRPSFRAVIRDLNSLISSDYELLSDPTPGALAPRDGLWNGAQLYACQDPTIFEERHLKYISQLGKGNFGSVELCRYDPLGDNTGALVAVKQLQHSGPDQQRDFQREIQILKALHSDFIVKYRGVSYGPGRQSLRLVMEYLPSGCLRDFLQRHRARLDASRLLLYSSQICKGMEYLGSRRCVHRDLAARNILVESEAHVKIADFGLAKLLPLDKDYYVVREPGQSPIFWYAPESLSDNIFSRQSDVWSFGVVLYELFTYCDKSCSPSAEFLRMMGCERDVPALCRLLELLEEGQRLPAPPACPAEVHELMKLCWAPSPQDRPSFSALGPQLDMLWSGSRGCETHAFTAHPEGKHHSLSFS
How it was run: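 IC50 is the concentration giving 50 percent of control on a 4-parameter logistic fit of 10-point, 3-fold dilutions from a 10 μM top dose, at 2% final DMSO. Kinetic Sox fluorescence (360/485 nm) was monitored every 50 s for 45 min. Mix: JAK3 2.5 nM, Omnia Y7 peptide 10 μM, ATP 10 μM (Km app) or 1 mM, in HEPES pH 7.4 buffer with MgCl2, Triton X-100 and DTT.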

JAK2 = target: T3, JAK2 (Homo sapiens, UniProt O60674); assay: JAK2 Inhibition Assay (Omnia kinase fluorescence peptide substrate); settings: averaged IC50 ranges; 25 μM (Km app) or 1 mM ATP, 5 nM JAK2
T3 construct: purchased Invitrogen Corporation, Carlsbad, Calif; IVGN PV4288
T3 sequence (O60674 whole entry): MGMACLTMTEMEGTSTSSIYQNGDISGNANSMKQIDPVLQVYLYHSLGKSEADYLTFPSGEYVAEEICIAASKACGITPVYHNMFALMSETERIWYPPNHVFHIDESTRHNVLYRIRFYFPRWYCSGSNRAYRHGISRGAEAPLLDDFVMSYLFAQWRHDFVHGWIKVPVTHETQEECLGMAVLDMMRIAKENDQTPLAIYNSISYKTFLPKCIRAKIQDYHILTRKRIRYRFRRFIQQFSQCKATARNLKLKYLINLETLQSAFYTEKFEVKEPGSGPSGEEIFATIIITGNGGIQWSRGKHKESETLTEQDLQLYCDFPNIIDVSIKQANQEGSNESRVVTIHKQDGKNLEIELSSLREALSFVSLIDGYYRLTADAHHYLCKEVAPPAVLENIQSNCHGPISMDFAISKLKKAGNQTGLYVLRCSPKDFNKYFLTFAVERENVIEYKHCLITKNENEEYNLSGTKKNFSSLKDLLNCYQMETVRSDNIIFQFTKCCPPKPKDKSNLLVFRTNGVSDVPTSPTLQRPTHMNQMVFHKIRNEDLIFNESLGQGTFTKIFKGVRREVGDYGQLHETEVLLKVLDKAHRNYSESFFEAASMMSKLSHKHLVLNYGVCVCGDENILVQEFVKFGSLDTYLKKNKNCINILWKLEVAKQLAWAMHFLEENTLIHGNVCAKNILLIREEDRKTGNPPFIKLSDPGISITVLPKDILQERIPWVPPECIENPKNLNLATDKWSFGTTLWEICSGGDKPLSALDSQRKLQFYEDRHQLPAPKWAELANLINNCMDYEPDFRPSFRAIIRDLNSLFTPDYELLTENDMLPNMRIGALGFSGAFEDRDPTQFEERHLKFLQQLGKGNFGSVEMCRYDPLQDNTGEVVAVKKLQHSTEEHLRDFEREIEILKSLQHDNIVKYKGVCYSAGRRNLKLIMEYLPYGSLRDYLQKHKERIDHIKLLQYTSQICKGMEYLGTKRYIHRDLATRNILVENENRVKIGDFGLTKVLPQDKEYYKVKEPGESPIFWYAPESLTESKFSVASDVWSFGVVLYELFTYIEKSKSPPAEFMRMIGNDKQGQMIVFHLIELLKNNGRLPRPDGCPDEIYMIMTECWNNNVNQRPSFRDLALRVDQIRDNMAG

Human Tyk2 kinase domain = target: T4, Human Tyk2 kinase domain (Homo sapiens, UniProt P29597); assay: Tyk2 Inhibition Assay (Omnia kinase fluorescence peptide substrate); settings: averaged IC50 ranges; 10 μM (Km app) or 1 mM ATP, 2 nM Tyk2
T4 construct: comprising amino acids 886 to 1187; His10 (10 histidine residues) (C, cleaved yes); made in house
T4 sequence (P29597 886-1187): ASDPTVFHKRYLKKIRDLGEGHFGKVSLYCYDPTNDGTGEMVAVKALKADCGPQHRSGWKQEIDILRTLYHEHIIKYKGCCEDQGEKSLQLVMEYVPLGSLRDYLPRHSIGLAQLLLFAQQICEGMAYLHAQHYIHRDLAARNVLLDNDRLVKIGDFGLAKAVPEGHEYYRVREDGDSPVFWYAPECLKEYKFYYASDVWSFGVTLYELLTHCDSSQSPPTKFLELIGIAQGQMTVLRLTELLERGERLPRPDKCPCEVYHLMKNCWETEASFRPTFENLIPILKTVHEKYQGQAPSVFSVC
How it was run: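 Phosphorylation of 8 μM Omnia Y12 peptide followed kinetically by Sox fluorescence, ex 360/em 485 nm, every 50 s for 45 min. Enzyme: 2 nM Tyk2 kinase domain (aa 886–1187, His tag removed); ATP at 10 μM (Km app) or 1 mM; buffer HEPES pH 7.4 with MgCl2, Triton X-100, DTT. 10-point curves up to 10 μM, IC50 from 4-parameter logistic fit.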

T1 sequence (P23458 whole entry): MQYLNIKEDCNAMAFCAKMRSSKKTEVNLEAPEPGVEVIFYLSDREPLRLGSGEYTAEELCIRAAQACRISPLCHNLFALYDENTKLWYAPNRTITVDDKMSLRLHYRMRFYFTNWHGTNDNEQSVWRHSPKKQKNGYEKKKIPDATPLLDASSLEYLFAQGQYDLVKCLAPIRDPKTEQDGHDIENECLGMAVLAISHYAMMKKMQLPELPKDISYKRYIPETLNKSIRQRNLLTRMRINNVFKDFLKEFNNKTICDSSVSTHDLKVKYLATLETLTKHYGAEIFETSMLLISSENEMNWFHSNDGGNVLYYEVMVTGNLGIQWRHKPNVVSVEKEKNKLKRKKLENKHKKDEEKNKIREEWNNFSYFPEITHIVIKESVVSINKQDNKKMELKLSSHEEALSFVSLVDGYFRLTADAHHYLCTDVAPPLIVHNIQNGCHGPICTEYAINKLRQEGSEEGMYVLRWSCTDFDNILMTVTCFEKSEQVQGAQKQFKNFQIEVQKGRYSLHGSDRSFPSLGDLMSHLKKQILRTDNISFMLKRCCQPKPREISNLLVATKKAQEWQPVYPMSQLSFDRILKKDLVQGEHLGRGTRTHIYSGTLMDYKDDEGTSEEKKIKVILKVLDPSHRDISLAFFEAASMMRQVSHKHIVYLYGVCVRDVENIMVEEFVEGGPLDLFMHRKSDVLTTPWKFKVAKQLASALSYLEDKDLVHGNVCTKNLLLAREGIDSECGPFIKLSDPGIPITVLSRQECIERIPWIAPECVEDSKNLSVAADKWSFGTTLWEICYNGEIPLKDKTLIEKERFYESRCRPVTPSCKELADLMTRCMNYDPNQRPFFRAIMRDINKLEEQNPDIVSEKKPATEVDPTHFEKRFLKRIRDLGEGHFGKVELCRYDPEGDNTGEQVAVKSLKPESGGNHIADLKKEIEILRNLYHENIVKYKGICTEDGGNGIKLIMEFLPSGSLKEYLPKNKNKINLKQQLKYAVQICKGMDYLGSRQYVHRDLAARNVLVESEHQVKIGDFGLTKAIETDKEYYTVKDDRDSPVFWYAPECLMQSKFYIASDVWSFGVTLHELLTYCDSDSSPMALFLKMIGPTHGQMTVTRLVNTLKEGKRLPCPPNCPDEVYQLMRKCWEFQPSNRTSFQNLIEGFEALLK

Structure (SMILES)	IC50 (JAK1) [nM]	IC50 (JAK3) [nM]	IC50 (JAK2) [nM]	IC50 (Human Tyk2 kinase domain) [nM]
COCCC(C1CCCC1)n1cc(-c2nc(-c3cnn(C)c3)cc3nccn23)cn1 (centres unmarked) [Example 70, 5-(1-(1-cyclopentyl-3-methoxypropyl)-1H-pyrazol-4-yl)-7-(1-methyl-1H-pyrazol-4-yl)imidazo[1,2-c]pyrimidine]	> 1000	> 1000	> 1000	100 to 1000
COCCC(C1CCCCC1)n1cc(-c2nc(-c3cnn(C)c3)cc3nccn23)cn1 (centres unmarked) [Example 71, 5-(1-(1-cyclohexyl-3-methoxypropyl)-1H-pyrazol-4-yl)-7-(1-methyl-1H-pyrazol-4-yl)imidazo[1,2-c]pyrimidine]	> 1000	> 1000	> 1000	> 1000
Cn1cc(-c2cc3nccn3c(-c3cnn(C(CCO)C4CCCC4)c3)n2)cn1 (centres unmarked) [Example 72, 3-cyclopentyl-3-(4-(7-(1-methyl-1H-pyrazol-4-yl)imidazo[1,2-c]pyrimidin-5-yl)-1H-pyrazol-1-yl)propan-1-ol]	> 1000	> 1000	> 1000	100 to 1000
Cn1cc(-c2cc3nccn3c(-c3cnn(C(CCO)C4CCCCC4)c3)n2)cn1 (centres unmarked) [Example 73, 3-cyclohexyl-3-(4-(7-(1-methyl-1H-pyrazol-4-yl)imidazo[1,2-c]pyrimidin-5-yl)-1H-pyrazol-1-yl)propan-1-ol]	> 1000	> 1000	100 to 1000	100 to 1000
COCCC(C1CCC1)n1cc(-c2nc(-c3cnn(C)c3)cc3nccn23)cn1 (centres unmarked) [Example 76, 5-(1-(1-cyclobutyl-3-methoxypropyl)-1H-pyrazol-4-yl)-7-(1-methyl-1H-pyrazol-4-yl)imidazo[1,2-c]pyrimidine]	> 1000	> 1000	100 to 1000	100 to 1000
COC(=O)CC(c1ccccc1)n1cc(-c2nc(-c3cnn(C)c3)cc3nccn23)cn1 (centres unmarked) [Example 77, methyl 3-(4-(7-(1-methyl-1H-pyrazol-4-yl)imidazo[1,2-c]pyrimidin-5-yl)-1H-pyrazol-1-yl)-3-phenylpropanoate]	100 to 1000	100 to 1000	100 to 1000	100 to 1000
COC(=O)CC(c1ccc(F)cc1)n1cc(-c2nc(-c3cnn(C)c3)cc3nccn23)cn1 (centres unmarked) [Example 80, methyl 3-(4-fluorophenyl)-3-(4-(7-(1-methyl-1H-pyrazol-4-yl)imidazo[1,2-c]pyrimidin-5-yl)-1H-pyrazol-1-yl)propanoate]	> 1000	> 1000	100 to 1000	100 to 1000
Cn1cc(-c2cc3nccn3c(-c3cnn(C(CCO)c4ccc(F)cc4)c3)n2)cn1 (centres unmarked) [Example 81, 3-(4-fluorophenyl)-3-(4-(7-(1-methyl-1H-pyrazol-4-yl)imidazo[1,2-c]pyrimidin-5-yl)-1H-pyrazol-1-yl)propan-1-ol]	100 to 1000	100 to 1000	100 to 1000	100 to 1000
COCCC(c1ccc(F)cc1)n1cc(-c2nc(-c3cnn(C)c3)cc3nccn23)cn1 (centres unmarked) [Example 82, 5-(1-(1-(4-fluorophenyl)-3-methoxypropyl)-1H-pyrazol-4-yl)-7-(1-methyl-1H-pyrazol-4-yl)imidazo[1,2-c]pyrimidine]	100 to 1000	100 to 1000	100 to 1000	100 to 1000

Continued, values first:

IC50 (JAK1) [nM]	IC50 (JAK3) [nM]	IC50 (JAK2) [nM]	IC50 (Human Tyk2 kinase domain) [nM]	Structure (SMILES)
> 1000	> 1000	> 1000	100 to 1000	Cn1cc(-c2cc3nccn3c(-c3cnn(C(CCO)C4CCC4)c3)n2)cn1 (centres unmarked) [Example 68, 3-cyclobutyl-3-(4-(7-(1-methyl-1H-pyrazol-4-yl)imidazo[1,2-c]pyrimidin-5-yl)-1H-pyrazol-1-yl)propan-1-ol]
100 to 1000	100 to 1000	10 to 100	< 10	Cn1cc(-c2cc3nccn3c(-c3cnn(C(CCF)C4CCC4)c3)n2)cn1 (centres unmarked) [Example 69, 5-(1-(1-cyclobutyl-3-fluoropropyl)-1H-pyrazol-4-yl)-7-(1-methyl-1H-pyrazol-4-yl)imidazo[1,2-c]pyrimidine]
> 1000	> 1000	100 to 1000	10 to 100	COCCC(C1CC1)n1cc(-c2nc(-c3cnn(C)c3)cc3nccn23)cn1 (centres unmarked) [Example 74, 5-(1-(1-cyclopropyl-3-methoxypropyl)-1H-pyrazol-4-yl)-7-(1-methyl-1H-pyrazol-4-yl)imidazo[1,2-c]pyrimidine]
10 to 100	100 to 1000	10 to 100	< 10	O=S(=O)(N1CC(CCF)(n2cc(-c3nc(-c4cn[nH]c4)cc4nccn34)cn2)C1)C(F)(F)F [Example 78, 5-(1-(3-(2-fluoroethyl)-1-((trifluoromethyl)sulfonyl)azetidin-3-yl)-1H-pyrazol-4-yl)-7-(1H-pyrazol-4-yl)imidazo[1,2-c]pyrimidine]
100 to 1000	100 to 1000	100 to 1000	10 to 100	Cn1ccc(-c2cc3nccn3c(-c3cnn(C4(CCF)CN(S(=O)(=O)C(F)(F)F)C4)c3)n2)cc1=O [Example 79, 4-(5-(1-(3-(2-fluoroethyl)-1-((trifluoromethyl)sulfonyl)azetidin-3-yl)-1H-pyrazol-4-yl)imidazo[1,2-c]pyrimidin-7-yl)-1-methylpyridin-2(1H)-one]
100 to 1000	100 to 1000	100 to 1000	10 to 100	CCCCC1(n2cc(-c3nc(-c4cnn(C)c4)cc4nccn34)cn2)CN(S(=O)(=O)C(F)(F)F)C1 [Example 83, 5-(1-(3-butyl-1-((trifluoromethyl)sulfonyl)azetidin-3-yl)-1H-pyrazol-4-yl)-7-(1-methyl-1H-pyrazol-4-yl)imidazo[1,2-c]pyrimidine]
100 to 1000	> 1000	100 to 1000	100 to 1000	Cc1nn(C)cc1S(=O)(=O)N1CC(CCF)(n2cc(-c3nc(-c4cnn(C)c4)cc4nccn34)cn2)C1 [Example 85, 5-(1-(1-((1,3-dimethyl-1H-pyrazol-4-yl)sulfonyl)-3-(2-fluoroethyl)azetidin-3-yl)-1H-pyrazol-4-yl)-7-(1-methyl-1H-pyrazol-4-yl)imidazo[1,2-c]pyrimidine]
> 1000	> 1000	100 to 1000	100 to 1000	Cn1cc(-c2cc3nccn3c(-c3cnn(C4(CCF)CN(S(=O)(=O)CC(F)(F)F)C4)c3)n2)cn1 [Example 86, 5-(1-(3-(2-fluoroethyl)-1-((2,2,2-trifluoroethyl)sulfonyl)azetidin-3-yl)-1H-pyrazol-4-yl)-7-(1-methyl-1H-pyrazol-4-yl)imidazo[1,2-c]pyrimidine]
